Assay results from patent US8999940B2 (Ipsen Pharma S.A.S., priority 2008, dated 2015).
Where a SMILES comes first, the peptide text is derived from it. [ ]: non-standard residue; d: D form. The star is where a group is joined. Desaminotyrosyl = O=C(CCc1ccc(O)cc1)*; Nle = CCCC[C@H](N)C(=O)O; Ac5c = NC1(C(=O)O)CCCC1; Aib = CC(C)(N)C(=O)O

Molecular target: T1, human recombinant GIP receptor (Homo sapiens, UniProt P48546)
T1 construct: expressed in transfected cells; host or cells: CHO-K1 clonal cells (membrane preparation)
T1 sequence (P48546 22-466): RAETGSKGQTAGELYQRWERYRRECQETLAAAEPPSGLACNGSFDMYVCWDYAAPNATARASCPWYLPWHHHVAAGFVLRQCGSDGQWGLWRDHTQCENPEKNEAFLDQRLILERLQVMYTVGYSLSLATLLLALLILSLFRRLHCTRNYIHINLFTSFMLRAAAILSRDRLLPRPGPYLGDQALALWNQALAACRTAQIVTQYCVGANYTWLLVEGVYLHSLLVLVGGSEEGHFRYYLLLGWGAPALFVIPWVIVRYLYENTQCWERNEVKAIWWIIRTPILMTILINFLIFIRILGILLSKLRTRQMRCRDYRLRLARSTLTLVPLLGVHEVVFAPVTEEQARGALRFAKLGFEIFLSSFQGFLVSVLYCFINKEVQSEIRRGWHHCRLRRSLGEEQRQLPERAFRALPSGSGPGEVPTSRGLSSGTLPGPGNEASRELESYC
Experiment: In vitro hGIP receptor binding assay
Experimental: A. In Vitro hGIP Receptor Binding Assay […] The incubations were terminated by rapid filtration through GF/C filters (pre-soaked in 0.5% polyethylenimine) using a Brandel filtration manifold. Each tube and filter were then washed three times with 5-ml aliquots of ice-cold buffer.

Row | Structure (SMILES) | Ki [nM]
1 | CC[C@H](C)[C@H](NC(=O)[C@H](CO)NC(=O)[C@H](Cc1ccc(O)cc1)NC(=O)[C@H](CC(=O)O)NC(=O)[C@H](CO)NC(=O)[C@@H](NC(=O)[C@H](Cc1ccccc1)NC(=O)[C@@H](NC(=O)CNC(=O)[C@H](CCC(=O)O)NC(=O)C(C)(C)NC(=O)CCc1ccc(O)cc1)[C@@H](C)O)[C@@H](C)CC)C(=O)N[C@@H](C)C(=O)N[C@@H](CCSC)C(=O)N[C@@H](CC(=O)O)C(=O)N[C@@H](CCCCN)C(=O)N[C@H](C(=O)N[C@@H](Cc1c[nH]cn1)C(=O)N[C@@H](CCC(N)=O)C(=O)N[C@@H](CCC(N)=O)C(=O)N[C@@H](CC(=O)O)C(=O)N[C@@H](Cc1ccccc1)C(=O)N[C@H](C(=O)N[C@@H](CC(N)=O)C(=O)N[C@@H](Cc1c[nH]c2ccccc12)C(=O)N[C@@H](CC(C)C)C(=O)N[C@@H](CC(C)C)C(=O)N[C@@H](C)C(=O)N[C@@H](CCC(N)=O)C(=O)N[C@@H](CCCCN)C(N)=O)C(C)C)[C@@H](C)CC [Example 6, (4Hppa^1, Aib^2)hGIP(1-30)-NH2] | 1.58
2 | CCCC[C@H](NC(=O)[C@H](C)NC(=O)[C@@H](NC(=O)C(C)(C)NC(=O)[C@H](Cc1ccc(O)cc1)NC(=O)[C@H](CC(=O)O)NC(=O)[C@H](CO)NC(=O)[C@@H](NC(=O)[C@H](Cc1ccccc1)NC(=O)[C@@H](NC(=O)CNC(=O)[C@H](CCC(=O)O)NC(=O)C(C)(C)NC(=O)CCc1ccc(O)cc1)[C@@H](C)O)[C@@H](C)CC)[C@@H](C)CC)C(=O)N[C@@H](CC(=O)O)C(=O)N[C@@H](CCCCN)C(=O)N[C@H](C(=O)N[C@@H](Cc1c[nH]cn1)C(=O)N[C@@H](CCC(N)=O)C(=O)N[C@@H](CCC(N)=O)C(=O)N[C@@H](CC(=O)O)C(=O)N[C@@H](Cc1ccccc1)C(=O)N[C@H](C(=O)N[C@@H](CC(N)=O)C(=O)N[C@@H](Cc1c[nH]c2ccccc12)C(=O)N[C@@H](CC(C)C)C(=O)N[C@@H](CC(C)C)C(=O)N[C@@H](C)C(=O)N[C@@H](CCC(N)=O)C(=O)N[C@@H](CCCCN)C(N)=O)C(C)C)[C@@H](C)CC [Example 2, (4Hppa^1, Aib^2,11, Nle^14)hGIP(1-30)-NH2] (Desaminotyrosyl-[Aib]EGTFISDY[Aib]IA[Nle]DKIHQQDFVNWLLAQK-NH2) | 20.3
3 | CC[C@H](C)[C@H](NC(=O)[C@H](CCCCN)NC(=O)[C@H](CC(=O)O)NC(=O)[C@H](CCSC)NC(=O)[C@H](C)NC(=O)[C@@H](NC(=O)C(C)(C)NC(=O)[C@H](Cc1ccc(O)cc1)NC(=O)[C@H](CC(=O)O)NC(=O)[C@H](CO)NC(=O)[C@@H](NC(=O)[C@H](Cc1ccccc1)NC(=O)[C@@H](NC(=O)CNC(=O)[C@H](CCC(=O)O)NC(=O)C(C)(C)NC(=O)CCc1ccc(O)cc1)[C@@H](C)O)[C@@H](C)CC)[C@@H](C)CC)C(=O)N[C@@H](Cc1c[nH]cn1)C(=O)N[C@@H](CCC(N)=O)C(=O)N[C@@H](CCC(N)=O)C(=O)N[C@@H](CC(=O)O)C(=O)N[C@@H](Cc1ccccc1)C(=O)N[C@H](C(=O)N[C@@H](CC(N)=O)C(=O)N[C@@H](Cc1c[nH]c2ccccc12)C(=O)N[C@@H](CC(C)C)C(=O)N[C@@H](CC(C)C)C(=O)N[C@@H](C)C(=O)N[C@@H](CCC(N)=O)C(=O)N[C@@H](CCCCN)C(N)=O)C(C)C [Example 4, (4Hppa^1, Aib^2,11)hGIP(1-30)-NH2] (Desaminotyrosyl-[Aib]EGTFISDY[Aib]IAMDKIHQQDFVNWLLAQK-NH2) | 15.4
4 | CCCC[C@H](NC(=O)[C@H](C)NC(=O)[C@@H](NC(=O)[C@H](CO)NC(=O)[C@H](Cc1ccc(O)cc1)NC(=O)[C@H](CC(=O)O)NC(=O)[C@H](CO)NC(=O)C1(NC(=O)[C@H](Cc2ccccc2)NC(=O)[C@@H](NC(=O)CNC(=O)[C@H](CCC(=O)O)NC(=O)C(C)(C)NC(=O)CCc2ccc(O)cc2)[C@@H](C)O)CCCC1)[C@@H](C)CC)C(=O)N[C@@H](CC(=O)O)C(=O)N[C@@H](CCCCN)C(=O)N[C@H](C(=O)N[C@@H](Cc1c[nH]cn1)C(=O)N[C@@H](CCC(N)=O)C(=O)N[C@@H](CCC(N)=O)C(=O)N[C@@H](CC(=O)O)C(=O)N[C@@H](Cc1ccccc1)C(=O)N[C@H](C(=O)N[C@@H](CC(N)=O)C(=O)N[C@@H](Cc1c[nH]c2ccccc12)C(=O)N[C@@H](CC(C)C)C(=O)N[C@@H](CC(C)C)C(=O)N[C@@H](C)C(=O)N[C@@H](CCC(N)=O)C(=O)N[C@@H](CCCCN)C(N)=O)C(C)C)[C@@H](C)CC [Example 1, (4Hppa^1, Aib^2, A5c^7, Nle^14)hGIP(1-30)-NH2] (Desaminotyrosyl-[Aib]EGTF[Ac5c]SDYSIA[Nle]DKIHQQDFVNWLLAQK-NH2) | 12.6
5 | CCCC[C@H](NC(=O)[C@H](C)NC(=O)[C@@H](NC(=O)C1(NC(=O)[C@H](Cc2ccc(O)cc2)NC(=O)[C@H](CC(=O)O)NC(=O)[C@H](CO)NC(=O)[C@@H](NC(=O)[C@H](Cc2ccccc2)NC(=O)[C@@H](NC(=O)CNC(=O)[C@H](CCC(=O)O)NC(=O)C(C)(C)NC(=O)[C@@H](N)Cc2ccc(O)c(Br)c2)[C@@H](C)O)[C@@H](C)CC)CCCC1)[C@@H](C)CC)C(=O)N[C@@H](CC(=O)O)C(=O)N[C@@H](CCCCN)C(=O)N[C@H](C(=O)N[C@@H](Cc1c[nH]cn1)C(=O)N[C@@H](CCC(N)=O)C(=O)N[C@@H](CCC(N)=O)C(=O)N[C@@H](CC(=O)O)C(=O)N[C@@H](Cc1ccccc1)C(=O)N[C@H](C(=O)N[C@@H](CC(N)=O)C(=O)N[C@@H](Cc1c[nH]c2ccccc12)C(=O)N[C@@H](CC(C)C)C(=O)N[C@@H](CC(C)C)C(=O)N[C@@H](C)C(=O)N[C@@H](CCC(N)=O)C(=O)N[C@@H](CCCCN)C(=O)NCC(=O)N[C@@H](CCCCN)C(=O)N[C@@H](CCCCN)C(=O)N[C@@H](CC(N)=O)C(=O)N[C@@H](CC(=O)O)C(=O)N[C@@H](Cc1c[nH]c2ccccc12)C(=O)N[C@@H](CCCCN)C(=O)N[C@@H](Cc1c[nH]cn1)C(=O)N[C@@H](CC(N)=O)C(=O)N[C@H](C(=O)N[C@H](C(=O)N[C@@H](CCC(N)=O)C(=O)N[C@@H](Cc1c[nH]cn1)C(=O)O)[C@@H](C)O)[C@@H](C)CC)C(C)C)[C@@H](C)CC [Example 71, (3Br-Tyr^1, Aib^2, A5c^11, Nle^14, His^43)hGIP(1-43)-OH] | 1.09
6 | CC[C@H](C)[C@H](NC(=O)[C@H](CCCCN)NC(=O)[C@H](CC(=O)O)NC(=O)C1(NC(=O)[C@H](C)NC(=O)[C@@H](NC(=O)C2(NC(=O)[C@H](Cc3ccc(O)cc3)NC(=O)[C@H](CC(=O)O)NC(=O)[C@H](CO)NC(=O)[C@@H](NC(=O)[C@H](Cc3ccccc3)NC(=O)[C@@H](NC(=O)CNC(=O)[C@H](CCC(=O)O)NC(=O)C(C)(C)NC(=O)[C@@H](N)Cc3ccc(O)c(Br)c3)[C@@H](C)O)[C@@H](C)CC)CCCC2)[C@@H](C)CC)CCCC1)C(=O)N[C@@H](Cc1c[nH]cn1)C(=O)N[C@@H](CCC(N)=O)C(=O)N[C@@H](CCC(N)=O)C(=O)N[C@@H](CC(=O)O)C(=O)N[C@@H](Cc1ccccc1)C(=O)N[C@H](C(=O)N[C@@H](CC(N)=O)C(=O)N[C@@H](Cc1c[nH]c2ccccc12)C(=O)N[C@@H](CC(C)C)C(=O)N[C@@H](CC(C)C)C(=O)N[C@@H](C)C(=O)N[C@@H](CCC(N)=O)C(=O)N[C@@H](CCCCN)C(=O)NCC(=O)N[C@@H](CCCCN)C(=O)N[C@@H](CCCCN)C(=O)N[C@@H](CC(N)=O)C(=O)N[C@@H](CC(=O)O)C(=O)N[C@@H](Cc1c[nH]c2ccccc12)C(=O)N[C@@H](CCCCN)C(=O)N[C@@H](Cc1c[nH]cn1)C(=O)N[C@@H](CC(N)=O)C(=O)N[C@H](C(=O)N[C@H](C(=O)N[C@@H](CCC(N)=O)C(=O)N[C@@H](Cc1c[nH]cn1)C(=O)O)[C@@H](C)O)[C@@H](C)CC)C(C)C [Example 72, (3Br-Tyr^1, Aib^2, A5c^11, 14, His^43)hGIP(1-43)-OH] | 0.92
